According to patent US9505834B2, “Methods for controlling the galactosylation profile of recombinantly-expressed proteins” (AbbVie Inc., priority 2011, dated 2016):
Like-named read-outs stand apart in the source and are kept apart here.

Columns and labels:
[1] = test system: adalimumab-producing CHO cell line #2; assay: Example 4 oligosaccharide analysis, CDM GIA-1, batch shake flasks; assay type: cell-based, Chinese Hamster
Description: (§1) For all studies with CHO cell lines described throughout this invention, samples were collected daily and measured for cell density and viability using a Cedex cell counter. Retention samples for titer analysis via Poros A method were collected by centrifugation at 12,000 RPM for 5 min when the culture viability began declining. The cultures were harvested by collecting 125 mL aliquots and centrifuging at 3,000 RPM for 30 min when culture viability was near or below 50%. All supernatants were stored at −80° C. until analysis.
For all studies, the harvest samples were Protein A purified and prepared for the oligosaccharide assay using the following procedures. As a first step in the process of establishing the identity and quantifying the oligosaccharides, they are released from the protein by enzymatic digestion with N-glycanase. Once the glycans are released, the free reducing end of each glycan is labeled by reductive amination with a fluorescent tag, 2-aminobenzamide (2-AB). The resulting labeled glycans are separated by normal-phase HPLC (NP-HPLC) in acetonitrile: 50 mM ammonium formate, pH 4.4, and detected by a fluorescence detector. Quantitation is based on the relative area percent of detected sugars. Throughout this invention, the relative area percentages of the agalactosyl fucosylated biantennary oligosaccharides, denoted as NGA2F+NGA2F-GlcNAc sum, and the galactose-containing fucosylated biantennary oligosaccharides NA1F+NA2F sum are reported and discussed.
(§2) Growth and production media for the adalimumab-producing CHO cell line #2 were prepared using a proprietary Life Technologies Gibco chemically defined media, GIA-1. […] All media were filtered through Corning 0.5 L or 1 L filter systems (0.22 μm PES) and stored at 4° C. until use.
(§3) Upon thaw, cells were expanded for 5 to 8 (2 to 3 day each) passages in a combination of 250 mL, 500 mL, and 1000 mL Corning vented non-baffled shake flasks. Production cultures were initiated in duplicate 500 mL Corning vented non-baffled shake flasks (200 mL working volume) at an initial VCD of approximately 0.5×10^6 cells/mL. Cultures were maintained on orbital shakers at 180 RPM in a dry incubator at 35° C. and 5% CO2. A glucose solution (1.25% (v/v) of 40% solution) was fed when the media glucose concentration fell below 3 g/L.
Galactose was supplemented at the following levels in production media: 0, 10, and 20 mM. […] This study was run in 2 blocks.

[2] = test system: adalimumab-producing CHO cell line #2; assay: Example 4 culture growth & productivity; assay type: cell-based, Chinese Hamster; details: galactose 0 to 20 mM and/or manganese chloride 0 to 40 μM
Description: as §1, §2
as §3, with “g/L. […]” for “g/L.”

[3] = test system: adalimumab-producing CHO cell line #3; assay: Example 5 culture growth & productivity; assay type: cell-based, Chinese Hamster; details: 30 mM galactose alone
Description: as §1
Growth and production media for the adalimumab-producing CHO cell line #3 were prepared using the proprietary Life Technologies Gibco chemically defined media, GIA-1.
Upon thaw, cells were expanded in Corning vented non-baffled shake flasks maintained on orbital shakers at 140 RPM, and in 10 L cell bags (2 L working volume) maintained at 25 RPM, 7° angle, and 0.25 SLPM airflow in a dry incubator at 36° C. and 5% CO2. Production cultures were initiated in 3 L bioreactors (1.4 L initial working volume) at 36° C., 30% dissolved oxygen, 200 RPM, and pH 6.9±0.2. A fixed split ratio of cells to media of 1:6.7 was utilized to initiate the production stage cultures. A temperature shift was performed when the culture VCD reached a value higher than 5×10^6 cells/mL. […]

[4] = test system: adalimumab-producing CHO cell line; details: 10 μM manganese chloride; within historical variation
Description: as §1
All media were filtered through Corning 0.5 L or 1 L filter systems (0.22 μm PES) and stored at 4° C. until use.
as §3, with “Production” for “Upon thaw, cells were expanded for 5 to 8 (2 to 3 day each) passages in a combination of 250 mL, 500 mL, and 1000 mL Corning vented non-baffled shake flasks. Production”, “110” for “180”

[5] = test system: CHO cell line producing mAb #2
Description: as §1
Growth and production media for the mAb #2 producing CHO cell line were prepared using the proprietary Life Technologies Gibco chemically defined media, GIA-1.
Upon thaw, cells were expanded in Corning vented non-baffled shake flasks maintained on orbital shakers at 140 RPM, and in 10 L cell bags (2 L working volume) maintained at 25 RPM, 7° angle, 0.25 SLPM airflow in a dry incubator at 36° C. and 5% CO2. Production cultures were initiated in 3 L bioreactors (1.5 L initial working volume) at 36° C., 25% dissolved oxygen, 200 RPM, and pH 7.0. The chemically-defined feed from Life Technologies Gibco JCL-5 was added as follows: 3% (v/v)—day 3, 5%—day 5, 7%—day 7, 10%—day 9, and 10%—day 11. […] Bioreactors were harvested at viability of approximately 70% or below or on production day 15, whichever condition occurred first. […]

Molecule | decrease in the NGA2F+NGA2F-GlcNac sum ([1]; 10 mM galactose alone) | maximum decrease in the NGA2F+NGA2F-GlcNac sum ([1]; 20 mM galactose alone) | maximum increase in the NA1F+NA2F sum ([1]; 20 mM galactose alone) | culture growth, viability profiles, and harvest titer [2] | growth profile [3] | maximum VCD compared to all other cultures [4] | decrease in the NGA2F+NGA2F-GlcNac sum ([1]; 10 μM manganese chloride alone) | maximum decrease in the NGA2F+NGA2F-GlcNac sum ([1]; 20 μM manganese chloride alone) | maximum increase in the NA1F+NA2F sum ([1]; 20 μM manganese chloride alone) | growth profile ([5]; 25 μM manganese chloride alone) | growth profile ([5]; manganese chloride 50 μM or 75 μM)
O=C[C@H](O)[C@@H](O)[C@@H](O)[C@H](O)CO [galactose, D(+)Galactose] | 6% | 9% | 10% | comparable to the control cultures | grew slower and reached a lower peak VCD | – | – | – | – | – | –
Manganese (II) Chloride [manganese chloride] | – | – | – | comparable to the control cultures | – | slightly higher maximum VCD | 18% | 22% | 23% | grew slower after production day 7 | growth profiles comparable to the control culture
